Consider nine compounds from patent US20230203063A1, “TRICYCLIC PYRIDONES AND PYRIMIDONES” (Erasca, Inc., priority 2019, published 2023).

Structures are written as SMILES.

In the first experiment the target is T1, mutant G12C K-RAS (Homo sapiens, UniProt P01116, G12C).
T1 construct: made in house; host or cells: E. coli BL21
The experiment in a line: covalent adduct formation (CAF) with mutant G12C K-RAS. It is filed as binding. The arrangement: covalent adduct formation (CAF): unit not given here. Conditions: Table 1; 10 micromolar, after 60 minutes. The procedure: Embodiments disclosed herein are further illustrated by the following examples in Tables 1-4 and the Examples hereinbelow. The Tables indicate the compound number, structure, the observed mass spectral molecular weight peak, and covalent adduct formation (CAF) with a mutant G12C K-RAS after 60 minutes at a concentration of 10 micromolar.
On to `C=CC(=O)N1CC2(CCN(c3nc(=O)n4c5c(c(-c6c(O)cccc6F)c(Cl)cc35)OCC4)CC2)C1` [Example 2, 7-(2-acryloyl-2,7-diazaspiro[3.5]nonan-7-yl)-9-chloro-10-(2-fluoro-6-hydroxyphenyl)-2H-[1,4]oxazino[2,3,4-ij]quinazolin-5(3H)-one], for which the “% CAF(60 min)” value stood at 42.5%.

Still in this experiment, the particulars now being: Table 6; 10 uM, 1 h.
For the compound `C=CC(=O)N1CCN(c2nc(=O)n3c4c(c(-c5c(O)cccc5F)c(Cl)cc24)OC[C@H]3CN2CCOCC2)[C@@H](C)C1` [Example 199, (3R,10R)-7-((S)-4-aciyloyl-2-methylpiperazin-1-yl)-9-chloro-10-(2-fluoro-6-hydroxyphenyl)-3-(morpholinomethyl)-2,3-dihydro-5H-[1,4]oxazino[2,3,4-ij]quinazolin-5-one], the “% CAF @ 10 uM, 1 h” value came to 0%.

For `C=CC(=O)N1C[C@H](C)N(c2nc(=O)n3c4c(c(-c5ccccc5C(F)(F)F)c(Cl)cc24)OCC3)C[C@H]1C` [Example 197, 7-((2S,5R)-4-acryloyl-2,5-dimethylpiperazin-1-yl)-9-chloro-10-(2-(trifluoromethyl)phenyl)-2,3-dihydro-5H-[1,4]oxazino[2,3,4-ij]quinazolin-5-one], the “% CAF @ 10 uM, 1 h” value was 0%.

Take `C=CC(=O)N1CCN(c2nc(=O)n3c4c(c(-c5c(O)cccc5F)c(Cl)cc24)OC[C@H]3CN2CCOCC2)[C@@H](C)C1` [Example 198, (3R,10S)-7-((S)-4-acryloyl-2-methvlpiperazin-1-yl)-9-chloro-10-(2-fluoro-6-hydroxyphenyl)-3-(morpholinomethyl)-2,3-dihydro-5H-[1,4]oxazino[2,3,4-ij]quinazolin-5-one]: the “% CAF @ 10 uM, 1 h” value was found to be 100%.

On to `C=CC(=O)N1C[C@H](C)N(c2nc(=O)n3c4c(c(-c5c(F)ccc6c5C(=O)NC6)ccc24)OCC3)C[C@H]1C` [Example 231, 7-((2S,5R)-4-acryloyl-2,5-dimethylpiperazin-1-yl)-10-(5-fluoro-3-oxoisoindolin-4-yl)-2,3-dihydro-5H-[1,4]oxazino[2,3,4-ij]quinazolin-5-one], for which the “% CAF @ 10 uM, 1 h” value was 0%.

As to `C=CC(=O)N1C[C@H](C)N(c2nc(=O)n3c4c(c(-c5c(O)cccc5F)c(Cl)cc24)OC[C@@H]3CN(C)CC(F)(F)F)C[C@H]1C` (atropisomer, axis not shown) [Example 239, (3S,10R)-7-((2S,5R)-4-acryloyl-2,5-dimethylpiperazin-1-yl)-9-chloro-10-(2-fluoro-6-hydroxyphen-yl)-3-((methyl(2,2,2-trifluoroethyl)amino)-methyl)-2H-[1,4]-oxazino[2,3,4-ij]-quinazolin-5(3H)-one], the “% CAF @ 10 uM, 1 h” value is listed as 3%.

On to `C=CC(=O)N1C[C@H](C)N(c2nc(=O)n3c4c(c(-c5c(C)ccc6[nH]ncc56)c(Cl)cc24)OC[C@H]3CCCN2C[C@@H]3C[C@H]2CO3)C[C@H]1C` [Example 325, (3R,10S)-3-(3-((1S,4S)-2-oxa-5-azabicyclo[2.2.1]heptan-5-yl)propyl)-7-((2S,5R)-4-acryloyl-2,5-dimethylpiperazin-1-yl)-9-chloro-10-(5-methyl-1H-indazol-4-yl)-2,3-dihydro-5H-[1,4]oxazino [2,3,4-ij] quinazolin-5-one], for which the “% CAF @ 10 uM, 1 h” value was 0%.

The experiment is the same for the next values; noted with them: Table 7; 10 micromolar, after 60 minutes.
With `C=CC(=O)N1CCN(c2nc(=O)n3c4c(c(-c5c(F)cc(F)cc5F)c(Cl)cc24)SC[C@H]3CC2CCN(C)CC2)[C@@H](C)C1` [Example 344, (R)-7-((S)-4-acryloyl-2-methylpiperazin-1-yl)-9-chloro-3-((1-methylpiperidin-4-yl)-methyl)-10-(2,4,6-trifluorophenyl)-2H-[1,4]thiazino[2,3,4-ij]-quinazolin-5(3H)-one], the “covalent adduct formation (CAF)” value was determined as 94.8.

As to `C=CC(=O)N1CCN(c2nc(=O)n3c4c(c(-c5ccc(F)cc5F)c(Cl)cc24)SC[C@@H]3CCCN2C[C@@H]3C[C@H]2CO3)[C@@H](C)C1` [Example 342, (3S)-3-(3-((1S,4S)-2-oxa-5-azabicyclo [2.2.1]heptan-5-yl)-propyl)-7-((S)-4-acryloyl-2-methyl-piperazin-1-yl)-9-chloro-10-(2,4-difluorophenyl)-2H-[1,4]thiazino[2,3,4-ij]-quinazolin-5(3H)-one], the “covalent adduct formation (CAF)” value turned out to be 94.7.
